Results published in patent publication US9327020B2, “Trisaccharide derivates, and their use as adjuvants” (Immunovo B.V., priority 2010, dated 2016).

Tests used:
Type in all cases: in vivo, rat
[1] = test system: testosterone; test: Serum testosterone levels (Testosterone EIA) of immunized rats
Procedure: (§1) The sulpho-lipo based adjuvants were tested in different doses varying from 0.008-8 mg per dose. The adjuvants were tested in combination with a GnRH-KLH conjugate with 0.7 μg conjugated GnRH per dose. Adjuvanticity of the adjuvants was compared with the positive control adjuvant, sulpho-lipo-sucrose (disaccharide with one sulphate ester group and seven lauroyl acid ester groups, S1L7-Su) and with negative control adjuvant consisting of an squalane-in-water emulsion without saccharide compound and one group receiving PBS only.
(§2) Male Wistar rats, 10 weeks of age, were housed with 3 rats per cage. Rats had ad libitum access to food en water. Rats were immunized at day 0, 14 and 28, according to the experimental design (Table 2) with 400 μl vaccine comprising 200 μl water phase and 200 μl adjuvant. Two intramuscular injections (100 μl each) were injected at the left and right inner thigh and 2×100 μl was injected subcutaneously in the neck region. Each group consists of 5 rats.
(§3) Blood samples for serum were collected from all animals prior to the immunizations and at day 41 and 56
Serum testosterone levels were measured using a commercially available Testosterone EIA (Beckman Coulter, Woerden, The Netherlands) according to the instructions of the manufacturer.

[2] = Injection site reactions (tissue swelling) after immunization; conditions: 8 mg
Procedure: as §2
Before vaccination the injection sites were assessed for the presence of abnormalities or existing local reactions. If such abnormalities or local reactions were absent, the animal was injected on that site. After each immunization, injection sites were inspected for tissue swelling. Size of subcutaneous injection sites was measured (diameter in mm). Since the intramuscular injection site reactions in the hind leg is difficult to determine, only the presence of intramuscular injections sites (tissue swelling) was determined and expressed in arbitrary values (present=10 mm, not present=0 mm) Scores of injection site reactions were added up per rat for the four injection sites at each inspection, means per group were calculated The results thereof are presented in FIG. 7.

[3] = Rise of mean body temperature (rectal) after immunization; conditions: 8 mg; for Mean body temperature (MBT): FIG. 6C
Procedure: as §2
At least once daily clinical observations were made in all animals. Mean body temperature (MBT) was determined for all animals before and after each immunization by rectal temperature. Mean body temperature per group (MBT) are depicted as to preimmunization levels FIG. 6.

[4] = test system: GnRH; test: GnRH specific antibody titers by ELISA in serum of rats immunized with GnRH-KLH conjugate plus adjuvant; conditions: for GnRH antibody titers versus squalane emulsion only (NS): rats that received 8 mg saccharide compound, FIG. 4C; for GnRH antibody titers, dose dependence: male Wistar rats, adjuvant 0.008-8 mg per dose, GnRH-KLH conjugate, FIG. 4A-B; for GnRH antibody titers versus adjuvant without saccharide (NS, group 11): rats treated with 0.08-8 mg sulpho-lipo-trisaccharide
Procedure: as §1
Vaccines 1-13 were formulated by adding equal volume of adjuvant (comprising the saccharide compounds as shown in table 2) to the water phase (containing 0.7 μg conjugated GnRH). Vaccine 14 consists of PBS only. The following vaccines were prepared:
as §2, §3
GnRH specific antibodies were measured by ELISA. Plates (96 wells) were precoated with 0.2% glutardialdehyde in phosphate buffer (pH 5) for 3 hours at room temperature, washed with 0.1 M phosphate buffer (pH 8) and coated with 100 μl per well of a solution containing 10 μg GnRH (Pepscan Presto, Lelystad, The Netherlands) per ml phosphate buffer (pH 8) and incubated for 3 hours at 37° C. Coated plates were washed with 0.05% Tween-80. Serum samples were diluted (1/10) in PEM (1% Tween-80 with 4% horse serum). This dilution was further diluted in the 96-well plate (100 μl per well, 8 steps) and incubated 1 hour at 37° C. After washing with 0.05% Tween-80, 100 μl of goat-anti-rat antiserum conjugated with peroxidase in PEM was added to the wells. Plates were incubated for 1 h at 37° C. and washed 12 times with 0.05% Tween-80. Subsequently, 150 μl of a substrate solution containing 2,2-azino-bis-(3-benzthiazoline-6-sulphonic acid) (ABTS) plus H2O2 was added to the wells of the plates. Plates were incubated for 45 minutes at ambient room temperature and absorbance was measured at 405 nm. Antibody titer was expressed as the 10 log of the dilution factor that gives an optical density of 4 times background (approx. 100).

[5] = from 0.08 mg sulpho-lipo-trisaccharide onwards, FIG. 5A-B

Compound | Serum testosterone levels ([1]; 8 mg, FIG. 5C) | Adverse effects at the site of injection [2] | Mean body temperature (MBT), any increase ([3]; after immunization) | GnRH antibody titers versus squalane emulsion only (NS) [4] | Serum testosterone levels [1, 5] | GnRH antibody titers, dose dependence [4] | GnRH antibody titers versus adjuvant without saccharide (NS, group 11) [4] | Injection site reactions at final inspection ([2]; 5 days after immunization) | Injection site reactions, course of size ([2]; FIG. 7C) | Injection site reactions, size relative to sulpho-lipo-trisaccharides ([2]; FIG. 7C) | Mean body temperature (MBT) ([3]; 3 hours post vaccination) | Mean body temperature (MBT) ([3]; 21 hours after vaccination)
CCCCCCCCCCCC(=O)OC[C@H]1O[C@H](OC[C@H]2O[C@H](O[C@]3(COC(=O)CCCCCCCCCCC)O[C@H](COC(=O)CCCCCCCCCCC)[C@@H](OC(=O)CCCCCCCCCCC)[C@@H]3OC(=O)CCCCCCCCCCC)[C@H](OC(=O)CCCCCCCCCCC)[C@@H](OC(=O)CCCCCCCCCCC)[C@@H]2OC(=O)CCCCCCCCCCC)[C@H](OC(=O)CCCCCCCCCCC)[C@@H](OC(=O)CCCCCCCCCCC)[C@H]1OC(=O)CCCCCCCCCCC [Example L11-Ra, Lipo-Raffinose] | induced decreasing testosterone levels | did not induce any adverse effects at the site of injection | did not induce any increase in MBT | substantially higher | – | – | – | – | – | – | – | –
Sulpho-Lipo-Maltotriose [Example S1L10-Ma] | – | – | – | substantially higher | dramatic decline of serum testosterone levels | dose dependent antibody titers against GnRH | substantially higher | – | – | – | – | –
Sulpho-Lipo-Raffinose [Example S1L10-Ra] | – | – | – | substantially higher | dramatic decline of serum testosterone levels | dose dependent antibody titers against GnRH | substantially higher | – | – | – | – | –
sulpho-lipo-sucrose [Example S1L7-Su-8] | – | – | – | – | – | – | – | still significant injection site reactions were present | increased in size up to day 4 | more than 4 times | slightly higher increase in MBT than the trisaccharide compounds | still increased
